Tests used:
Assay in all cases: relative viability (nuclei count vs DMSO), 5 days (fraction); higher = more cells survive
Vandetanib + Phenformin = compound: COc1cc2/c(=N/c3ccc(Br)cc3F)nc[nH]c2cc1OCC1CCN(C)CC1 [Vandetanib] + N=C(N)NC(=N)NCCc1ccccc1 [Phenformin] (partner 250 µM)
Summary of the method: (§1)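 A single step with final 0.05% Triton X-100, 1% formaldehyde and 1 ug/ml Hoechst fixed the cells and stained nuclei 5 days after treatment. Lung cancer cell lines in 1536-well plates had been treated by pin tool the day after seeding with one drug alone or a fixed anchor-drug dose plus five library-drug doses (not always all listed) in √10 steps, and nuclei were counted on 4× images. Relative viability is the ratio of nuclei in treated wells to nuclei in vehicle wells, taken as the median of duplicate plates.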

CUDC-101 + AZD7762 = compound: C#Cc1cccc(Nc2ncnc3cc(OC)c(OCCCCCCC(=O)NO)cc23)c1 [CUDC-101] + NC(=O)Nc1cc(-c2cccc(F)c2)sc1C(=O)N[C@H]1CCCNC1 [AZD7762] (partner 0.2 µM)
Summary of the method: as §1

Vandetanib + Alpelisib = compound: COc1cc2/c(=N/c3ccc(Br)cc3F)nc[nH]c2cc1OCC1CCN(C)CC1 [Vandetanib] + Cc1nc(NC(=O)N2CCC[C@H]2C(N)=O)sc1-c1ccnc(C(C)(C)C(F)(F)F)c1 [Alpelisib] (partner 2 µM)
Summary of the method: as §1

[1] = compound: C1=CC=C2C(=C1)N=C(S2)C(C#N)C3=NC(=NC=C3)NCCC4=CN=CC=C4 + C[C@]1(O)C[C@@H](c2nc(-c3ccc4ccc(-c5ccccc5)nc4c3)c3c(N)nccn32)C1 [Linsitinib] (partner 1 µM)
Summary of the method: as §1

LU99A
relative viability (Vandetanib + Phenformin; first compound 0.02 µM): 0.876 | relative viability (Vandetanib + Phenformin; first compound 0.06325 µM): 0.818 | relative viability (Vandetanib + Phenformin; first compound 0.2 µM): 0.577 | relative viability (Vandetanib + Phenformin; first compound 0.6325 µM): 0.766 | relative viability (Vandetanib + Phenformin; first compound 2 µM): 0.886 | relative viability (CUDC-101 + AZD7762; first compound 0.01 µM): 0.301 | relative viability (CUDC-101 + AZD7762; first compound 0.03162 µM): 0.297 | relative viability (CUDC-101 + AZD7762; first compound 0.1 µM): 0.247 | relative viability (CUDC-101 + AZD7762; first compound 0.3162 µM): 0.198 | relative viability (CUDC-101 + AZD7762; first compound 1 µM): 0.104 | relative viability (Vandetanib + Alpelisib; first compound 0.02 µM): 0.52 | relative viability (Vandetanib + Alpelisib; first compound 0.06325 µM): 0.446 | relative viability (Vandetanib + Alpelisib; first compound 0.2 µM): 0.511 | relative viability (Vandetanib + Alpelisib; first compound 0.6325 µM): 0.414 | relative viability (Vandetanib + Alpelisib; first compound 2 µM): 0.596 | relative viability ([1]; first compound 0.005 µM): 0.517 | relative viability ([1]; first compound 0.01581 µM): 0.517 | relative viability ([1]; first compound 0.05 µM): 0.553 | relative viability ([1]; first compound 0.1581 µM): 0.611 | relative viability ([1]; first compound 0.5 µM): 0.553

NCI-H650
relative viability (Vandetanib + Phenformin; first compound 0.02 µM): 0.464 | relative viability (Vandetanib + Phenformin; first compound 0.06325 µM): 0.448 | relative viability (Vandetanib + Phenformin; first compound 0.6325 µM): 0.472 | relative viability (Vandetanib + Phenformin; first compound 2 µM): 0.364 | relative viability (CUDC-101 + AZD7762; first compound 0.01 µM): 1.25 | relative viability (CUDC-101 + AZD7762; first compound 0.03162 µM): 0.835 | relative viability (CUDC-101 + AZD7762; first compound 0.1 µM): 1.03 | relative viability (CUDC-101 + AZD7762; first compound 0.3162 µM): 0.968 | relative viability (CUDC-101 + AZD7762; first compound 1 µM): 0.848 | relative viability (Vandetanib + Alpelisib; first compound 0.02 µM): 1.13 | relative viability (Vandetanib + Alpelisib; first compound 0.06325 µM): 0.998 | relative viability (Vandetanib + Alpelisib; first compound 0.2 µM): 1.08 | relative viability (Vandetanib + Alpelisib; first compound 0.6325 µM): 1.04 | relative viability (Vandetanib + Alpelisib; first compound 2 µM): 0.905 | relative viability ([1]; first compound 0.005 µM): 0.838 | relative viability ([1]; first compound 0.01581 µM): 0.578 | relative viability ([1]; first compound 0.05 µM): 0.803 | relative viability ([1]; first compound 0.1581 µM): 1.26 | relative viability ([1]; first compound 0.5 µM): 0.984

LXF-289
relative viability (Vandetanib + Phenformin; first compound 0.02 µM): 0.503 | relative viability (Vandetanib + Phenformin; first compound 0.06325 µM): 0.5 | relative viability (Vandetanib + Phenformin; first compound 0.2 µM): 0.499 | relative viability (Vandetanib + Phenformin; first compound 0.6325 µM): 0.489 | relative viability (Vandetanib + Phenformin; first compound 2 µM): 0.509 | relative viability (CUDC-101 + AZD7762; first compound 0.01 µM): 1.08 | relative viability (CUDC-101 + AZD7762; first compound 0.03162 µM): 1.13 | relative viability (CUDC-101 + AZD7762; first compound 0.1 µM): 1.02 | relative viability (CUDC-101 + AZD7762; first compound 0.3162 µM): 1.07 | relative viability (CUDC-101 + AZD7762; first compound 1 µM): 0.811 | relative viability (Vandetanib + Alpelisib; first compound 0.02 µM): 1.05 | relative viability (Vandetanib + Alpelisib; first compound 0.06325 µM): 1 | relative viability (Vandetanib + Alpelisib; first compound 0.2 µM): 1.02 | relative viability (Vandetanib + Alpelisib; first compound 0.6325 µM): 1.03 | relative viability (Vandetanib + Alpelisib; first compound 2 µM): 1.04 | relative viability ([1]; first compound 0.005 µM): 0.853 | relative viability ([1]; first compound 0.01581 µM): 1.01 | relative viability ([1]; first compound 0.05 µM): 1.05 | relative viability ([1]; first compound 0.1581 µM): 1.04 | relative viability ([1]; first compound 0.5 µM): 0.92

CAL-12T
relative viability (Vandetanib + Phenformin; first compound 0.02 µM): 0.536 | relative viability (Vandetanib + Phenformin; first compound 0.06325 µM): 0.539 | relative viability (Vandetanib + Phenformin; first compound 0.2 µM): 0.446 | relative viability (Vandetanib + Phenformin; first compound 0.6325 µM): 0.411 | relative viability (Vandetanib + Phenformin; first compound 2 µM): 0.242 | relative viability (CUDC-101 + AZD7762; first compound 0.01 µM): 0.668 | relative viability (CUDC-101 + AZD7762; first compound 0.03162 µM): 0.567 | relative viability (CUDC-101 + AZD7762; first compound 0.1 µM): 0.617 | relative viability (CUDC-101 + AZD7762; first compound 0.3162 µM): 0.536 | relative viability (CUDC-101 + AZD7762; first compound 1 µM): 0.601 | relative viability (Vandetanib + Alpelisib; first compound 0.02 µM): 0.993 | relative viability (Vandetanib + Alpelisib; first compound 0.06325 µM): 0.956 | relative viability (Vandetanib + Alpelisib; first compound 0.2 µM): 1.44 | relative viability (Vandetanib + Alpelisib; first compound 0.6325 µM): 1.26 | relative viability (Vandetanib + Alpelisib; first compound 2 µM): 0.73 | relative viability ([1]; first compound 0.005 µM): 0.76 | relative viability ([1]; first compound 0.01581 µM): 0.781 | relative viability ([1]; first compound 0.05 µM): 0.671 | relative viability ([1]; first compound 0.1581 µM): 0.991 | relative viability ([1]; first compound 0.5 µM): 0.839

NCI-H1975
relative viability (Vandetanib + Phenformin; first compound 0.02 µM): 0.391 | relative viability (Vandetanib + Phenformin; first compound 0.06325 µM): 0.398 | relative viability (Vandetanib + Phenformin; first compound 0.2 µM): 0.391 | relative viability (Vandetanib + Phenformin; first compound 0.6325 µM): 0.389 | relative viability (Vandetanib + Phenformin; first compound 2 µM): 0.403 | relative viability (CUDC-101 + AZD7762; first compound 0.01 µM): 0.749 | relative viability (CUDC-101 + AZD7762; first compound 0.03162 µM): 0.743 | relative viability (CUDC-101 + AZD7762; first compound 0.1 µM): 0.665 | relative viability (CUDC-101 + AZD7762; first compound 0.3162 µM): 0.761 | relative viability (CUDC-101 + AZD7762; first compound 1 µM): 0.722 | relative viability (Vandetanib + Alpelisib; first compound 0.02 µM): 0.583 | relative viability (Vandetanib + Alpelisib; first compound 0.06325 µM): 0.573 | relative viability (Vandetanib + Alpelisib; first compound 0.2 µM): 0.597 | relative viability (Vandetanib + Alpelisib; first compound 0.6325 µM): 0.63 | relative viability (Vandetanib + Alpelisib; first compound 2 µM): 0.477 | relative viability ([1]; first compound 0.005 µM): 0.823 | relative viability ([1]; first compound 0.01581 µM): 1.07 | relative viability ([1]; first compound 0.05 µM): 0.972 | relative viability ([1]; first compound 0.1581 µM): 1.07 | relative viability ([1]; first compound 0.5 µM): 0.738

NCI-H647
relative viability (Vandetanib + Phenformin; first compound 0.02 µM): 0.524 | relative viability (Vandetanib + Phenformin; first compound 0.06325 µM): 0.51 | relative viability (Vandetanib + Phenformin; first compound 0.2 µM): 0.412 | relative viability (Vandetanib + Phenformin; first compound 0.6325 µM): 0.513 | relative viability (Vandetanib + Phenformin; first compound 2 µM): 0.501 | relative viability (CUDC-101 + AZD7762; first compound 0.01 µM): 0.555 | relative viability (CUDC-101 + AZD7762; first compound 0.03162 µM): 0.376 | relative viability (CUDC-101 + AZD7762; first compound 0.1 µM): 0.567 | relative viability (CUDC-101 + AZD7762; first compound 0.3162 µM): 0.403 | relative viability (CUDC-101 + AZD7762; first compound 1 µM): 0.176 | relative viability (Vandetanib + Alpelisib; first compound 0.02 µM): 1.03 | relative viability (Vandetanib + Alpelisib; first compound 0.06325 µM): 1.1 | relative viability (Vandetanib + Alpelisib; first compound 0.2 µM): 1.11 | relative viability (Vandetanib + Alpelisib; first compound 0.6325 µM): 1.1 | relative viability (Vandetanib + Alpelisib; first compound 2 µM): 0.786 | relative viability ([1]; first compound 0.01581 µM): 1.17 | relative viability ([1]; first compound 0.05 µM): 1.16 | relative viability ([1]; first compound 0.1581 µM): 1.25 | relative viability ([1]; first compound 0.5 µM): 0.976

NCI-H322M
relative viability (Vandetanib + Phenformin; first compound 0.02 µM): 0.7 | relative viability (Vandetanib + Phenformin; first compound 0.06325 µM): 0.731 | relative viability (Vandetanib + Phenformin; first compound 0.2 µM): 0.852 | relative viability (Vandetanib + Phenformin; first compound 0.6325 µM): 0.622 | relative viability (Vandetanib + Phenformin; first compound 2 µM): 0.493 | relative viability (CUDC-101 + AZD7762; first compound 0.01 µM): 0.558 | relative viability (CUDC-101 + AZD7762; first compound 0.03162 µM): 0.428 | relative viability (CUDC-101 + AZD7762; first compound 0.1 µM): 0.496 | relative viability (CUDC-101 + AZD7762; first compound 0.3162 µM): 0.345 | relative viability (CUDC-101 + AZD7762; first compound 1 µM): 0.353 | relative viability (Vandetanib + Alpelisib; first compound 0.02 µM): 0.772 | relative viability (Vandetanib + Alpelisib; first compound 0.06325 µM): 0.746 | relative viability (Vandetanib + Alpelisib; first compound 0.2 µM): 0.777 | relative viability (Vandetanib + Alpelisib; first compound 0.6325 µM): 0.709 | relative viability (Vandetanib + Alpelisib; first compound 2 µM): 0.866 | relative viability ([1]; first compound 0.005 µM): 0.88 | relative viability ([1]; first compound 0.01581 µM): 1.03 | relative viability ([1]; first compound 0.05 µM): 0.899 | relative viability ([1]; first compound 0.1581 µM): 0.987 | relative viability ([1]; first compound 0.5 µM): 0.803
